# Reference: paper PMC5816172 (Proceedings of the National Academy of Sciences of the …, 2018)
# Tested on: NLRP3 inflammasome
# Assay: NLRP3 inflammasome stimulation of J774A.1 macrophages
# Format: cell-based, mouse
# Conditions: J774A.1 (Fig. S7B), ACHP alone
structure (smiles),measurement,value
"N#Cc1c(C2CCNCC2)cc(-c2c(O)cccc2OCC2CC2)nc1N [ACHP, 2-Amino-6-[2-(cyclopropylmethoxy)-6-hydroxyphenyl]-4-(4-piperidinyl)-3-pyridinecarbonitrile, reference compound]",reduction of LPS/nigericin induction of IL-1β,60%
